Experimental data from patent publication US10214512B2, “Factor XIA inhibitors” (MERCK SHARP & DOHME CORP., priority 2015, dated 2019).

Experiments:
[1] = target: purified human Factor XIa (Homo sapiens (Human), UniProt P03951); assay: Factor XIa Assay; assay type: biochemical; details: purified human Factor XIa 40 pM; substrate Z-Gly-Pro-Arg-AFC 100 μM; 50 mM HEPES pH 7.4; read-out: Human FXIa Ki
Outline: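 Ki obtained from the dependence of uninhibited/inhibited initial-velocity ratio on inhibitor concentration, under a competitive-inhibition model. Reactions used 100 μM Z-Gly-Pro-Arg-AFC and 40 pM final human Factor XIa in pH 7.4 HEPES buffer with NaCl, CaCl2 and PEG 8000; run at rt or 37° C following pre-equilibration.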

[2] = target: purified Human plasma Kallikrein (Homo sapiens (Human), UniProt P03952); assay: Kallikrein Assay; assay type: biochemical; details: purified Human plasma Kallikrein 0.5 nM; substrate Acetyl-K-P-R-AFC; 50 mM HEPES pH 7.4; Ki from IC50 by Cheng Prusoff
Outline: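 Purified human plasma kallikrein (0.5 nM) with fluorogenic Ac-K-P-R-AFC ([…]) in 50 mM HEPES pH 7.4, 150 mM NaCl, 5 mM CaCl2, 0.1% PEG 8000, at rt or 37 °C. Substrate hydrolysis rate read with and without inhibitor; IC50 from four-parameter logistic fit, converted to Ki by Cheng–Prusoff.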

Chain of purified human Factor XIa (P03951 388-625): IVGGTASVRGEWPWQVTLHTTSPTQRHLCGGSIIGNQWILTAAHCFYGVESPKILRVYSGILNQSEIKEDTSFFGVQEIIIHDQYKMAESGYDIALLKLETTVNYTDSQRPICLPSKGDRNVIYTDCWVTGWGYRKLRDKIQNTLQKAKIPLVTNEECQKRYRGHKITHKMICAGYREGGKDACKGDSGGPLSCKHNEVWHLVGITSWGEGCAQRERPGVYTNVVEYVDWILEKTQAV
Chain of purified human Factor XIa (P03951 19-387 partner): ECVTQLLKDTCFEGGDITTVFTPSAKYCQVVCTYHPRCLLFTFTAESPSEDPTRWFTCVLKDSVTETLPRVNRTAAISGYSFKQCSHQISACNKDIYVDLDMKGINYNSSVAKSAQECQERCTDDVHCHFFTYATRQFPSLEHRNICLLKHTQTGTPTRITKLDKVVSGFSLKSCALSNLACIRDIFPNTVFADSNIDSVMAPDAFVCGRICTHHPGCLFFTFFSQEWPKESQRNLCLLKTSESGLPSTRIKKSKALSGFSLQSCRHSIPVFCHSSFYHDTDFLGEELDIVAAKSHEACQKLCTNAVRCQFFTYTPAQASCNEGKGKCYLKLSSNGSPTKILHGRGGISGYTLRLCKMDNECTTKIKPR
Chain of purified Human plasma Kallikrein (P03952 391-638): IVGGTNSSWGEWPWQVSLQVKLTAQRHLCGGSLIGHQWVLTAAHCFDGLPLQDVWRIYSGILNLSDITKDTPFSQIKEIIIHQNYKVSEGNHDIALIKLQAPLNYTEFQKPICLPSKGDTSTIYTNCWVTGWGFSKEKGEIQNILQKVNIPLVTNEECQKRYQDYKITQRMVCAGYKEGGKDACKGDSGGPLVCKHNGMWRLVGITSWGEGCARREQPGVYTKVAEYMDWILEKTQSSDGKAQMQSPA
Chain of purified Human plasma Kallikrein (P03952 20-390 partner): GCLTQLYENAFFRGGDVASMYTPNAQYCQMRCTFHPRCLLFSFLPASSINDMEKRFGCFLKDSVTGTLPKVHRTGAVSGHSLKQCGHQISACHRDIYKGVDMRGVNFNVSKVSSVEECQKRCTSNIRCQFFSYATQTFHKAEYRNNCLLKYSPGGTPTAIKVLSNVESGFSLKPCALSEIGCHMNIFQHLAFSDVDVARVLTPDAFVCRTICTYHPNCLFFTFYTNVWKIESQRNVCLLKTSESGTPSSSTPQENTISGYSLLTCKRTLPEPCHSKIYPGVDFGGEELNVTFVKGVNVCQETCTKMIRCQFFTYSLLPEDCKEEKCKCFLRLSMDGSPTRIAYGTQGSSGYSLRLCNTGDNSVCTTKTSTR

Ki [1] [nM] | Ki [2] [nM] | SMILES
3.5 | 10.6 | COC(=O)Nc1ccc2c(c1)NC(=O)C(C)CCCC(c1ccc(-c3c(F)ccc(Cl)c3F)c[n+]1[O-])c1cccc-2c1 (single isomer, unassigned) [Example 50-b, 5-(3-chloro-2,6-difluorophenyl)-2-(2^4-((methoxycarbonyl)amino)-5-methyl-4-oxo-3-aza-1(1,3),2(1,2)-dinenzenacyclononaphane-9-yl)pyridine 1-oxide]
1.23 | 2.7 | CCOC(=O)Nc1ccc2c(c1)NC(=O)CCCC[C@H](c1ccc(-c3c(F)ccc(Cl)c3F)c[n+]1[O-])c1cccc-2c1 [Example 44, (s)-5-(3-chloro-2,6-difluorophenyl)-2-(2^4-((ethoxycarbonyl)amino)-4-oxo-3-aza-1(1,3),2(1,2)-dinenzenacyclononaphane-9-yl)pyridine 1-oxide]
30.3 | 2170 | O=C(C1CCCCC(c2ccc(-c3cc(Cl)ccc3-n3cnnn3)c[n+]2[O-])c2cccc(c2)-c2cc(F)ccc2N1)N1CCCC1 (single isomer, unassigned) [Example 79-d, 5-(5-Chloro-2-(1H-tetrazol-1-yl)phenyl)-2-(2^5-fluoro-4-(pyrrolidine-1-carbonyl)-3-aza-1(1,3),2(1,2)-dibenzenacyclononaphane-9-yl)pyridine 1-oxide]
3.3 | 161 | COC(=O)Nc1ccc2c(c1)NC(=O)CCCCC(c1ccc(-c3cc(Cl)ccc3-n3cnnn3)cn1)c1nc-2c[nH]1 (centres unmarked) [Example 97, methyl (Z)-(9-(5-(5-chloro-2-(1H-tetrazol-1-yl)phenyl)pyridin-2-yl)-4-oxo-1^1H-3-AZA-1(4,2)-imidazola-2(1,2)-benzenacyclononaphane-2^4-yl)carbamate]
3.8 | 94.2 | N#Cc1cnn(-c2ccc(Cl)cc2-c2ccc([C@H]3CCCCC(=O)Nc4cnn(C(F)F)c4-c4cccc3c4)[n+]([O-])c2)c1 (single isomer, unassigned) [Example 169]
2.9 | 6 | COC(=O)Nc1ccc2c(c1)NC(=O)CCCCC(c1ccc(-c3cc(Cl)ccc3-n3cnnn3)cn1)c1cc-2ncn1 (centres unmarked) [Example 65, methyl (9-(5-(5-chloro-2-(1h-tetrazol-1-yl)phenyl)pyridin-2-yl)-4-oxo-3-aza-1(4,6)-pyrimidina-2(1,2)-benzenacyclononaphane-2^4-yl)carbamate]
1.7 | 7 | Nc1ccc2c(c1)NC(=O)CCCCC(c1ccc(-c3c(F)ccc(Cl)c3F)c[n+]1[O-])c1cccc-2c1 (single isomer, unassigned) [Example 43-a, 2-(2^4-amino-4-oxo-3-aza-1(1,3),2(1,2)-dinenzenacyclononaphane-9-yl)-5-(3-chloro-2,6-difluorophenyl)pyridine 1-oxide]
6.34 | 1.29 | COC(=O)Nc1ccc2c(c1)NC(=O)C(C)CCCC(c1ccc(-c3c(F)ccc(Cl)c3F)c[n+]1[O-])c1ccc(F)c-2c1 (single isomer, unassigned) [Example 86-a, 5-(3-Chloro-2,6-difluorophenyl)-2-(1^6-fluoro-2^4-((methoxycarbonyl)amino)-5-methyl-4-oxo-3-aza-1(1,3),2(1,2) -dibenzenacyclononaphane-9-yl)pyridine 1-oxide]
2.3 | 665 | CCc1[nH]c2nc1-c1ccc(NC(=O)OC)cc1NC(=O)CCCC[C@@H]2c1ccc(-c2c(F)cccc2-n2cc(C(F)(F)F)cn2)c[n+]1[O-] (single isomer, unassigned) [Example 138]
0.13 | 0.36 | COC(=O)Nc1ccc2c(c1)NC(=O)CCCC[C@H](c1ccc(-c3cc(Cl)ccc3-n3cc(Cl)nn3)c[n+]1[O-])c1cccc-2c1 (single isomer, unassigned) [Example 37]
1.89 | 5.01 | O=C1CCCC[C@H](c2ccc(-c3c(F)ccc(Cl)c3F)c[n+]2[O-])c2cccc(c2)-c2ccc(Nc3cccnc3)cc2N1 [Example 47, 5-(3-chloro-2,6-difluorophenyl)-2-(4-oxo-2^4-(pyridin-3-ylamino)-3-aza-1(1,3),2(1,2)-dinenzenacyclononaphane-9-yl)pyridine 1-oxide]
0.09 | 2.7 | O=C1CCCC[C@H](c2ccc(-c3cc(Cl)ccc3-n3cnnn3)c[n+]2[O-])c2cccc(c2)-c2cc(F)ccc2N1 [Example 2-a, (S) 5-(5-chloro-2-(1H-tetrazol-1-yl)phenyl)-2-(2^5-fluoro-4-oxo-3-aza-1(1,3),2(1,2)-dibenzenacyclononaphane-9-yl)pyridine 1-oxide]
0.57 | 10.6 | C[C@H]1CCC[C@H](c2ccc(-c3cc(Cl)ccc3-n3cnnn3)c[n+]2[O-])c2cccc(c2)-c2cc(F)ccc2NC1=O [Example 3-b, 5-(5-chloro-2-(1H-tetrazol-1-yl)phenyl)-2-((5S,9S)-2^5-fluoro-5-methyl-4-oxo-3-aza-1(1,3),2(1,2)-dibenzenacyclononaphane-9-yl)pyridine 1-oxide]
0.13 | 0.26 | CCc1[nH]c2nc1-c1ccc(NC(=O)OC)cc1NC(=O)CCCCC2c1ccc(-c2c(F)ccc(Cl)c2F)c[n+]1[O-] (single isomer, unassigned) [Example 112-a, (Z)-5-(3-Chloro-2,6-difluorophenyl)-2-(1^5-ethyl-2^4-((Methoxycarbonyl)amino)-4-oxo-1^1H-3-AZA-1(4,2)-imidazola-2(1,2) -benzenacyclononaphane-9-yl)pyridine 1-oxide]
0.47 | 56.7 | Cc1[nH]c2nc1-c1cc(F)ccc1NC(=O)CCCC[C@@H]2c1ccc(-c2cc(F)ccc2-n2cnnn2)c[n+]1[O-] (single isomer, unassigned) [Example 142]
1.7 | 137 | COC(=O)Nc1ccc2c(c1)NC(=O)CCCCC(c1ccc(-c3c(F)cc(I)c(Cl)c3F)c[n+]1[O-])c1nc-2c[nH]1 (single isomer, unassigned) [Example 103-a, (Z)-5-(3-Chloro-2,6-difluoro-4-iodophenyl)-2-(2^4-((methoxycarbonyl)amino)-4-oxo-1^1H-3-aza-1(4,2)-imidazola-2(1,2) -benzenacyclononaphane-9-yl)pyridine 1-oxide]
0.56 | 17.2 | O=C1CCCCC(c2ccc(-c3cc(Cl)ccc3-n3cc(C(F)F)nn3)c[n+]2[O-])c2nc(c[nH]2)-c2cc(F)ccc2N1 (single isomer, unassigned) [Example 105-a, (Z)-5-(5-Chloro-2-(4-(difluoromethyl)-1H-1,2,3-triazol-1-yl)phenyl)-2-(2^5-fluoro-4-oxo-1^1H-3-aza-1 (4,2)-imidazola-2(1,2)-benzenacyclononaphane-9-yl)pyridine 1-oxide]
5.69 | 37.5 | O=C1CCCC[C@H](c2ccc(-c3cc(Cl)ccc3-c3cnco3)c[n+]2[O-])c2nc(c[nH]2)-c2cc(F)ccc2N1 (single isomer, unassigned) [Example 118]
52.2 | 2920 | O=C(C1CCCCC(c2ccc(-c3cc(Cl)ccc3-n3cnnn3)c[n+]2[O-])c2cccc(c2)-c2cc(F)ccc2N1)N1CCCC1 (single isomer, unassigned) [Example 79-c, 5-(5-Chloro-2-(1H-tetrazol-1-yl)phenyl)-2-(2^5-fluoro-4-(pyrrolidine-1-carbonyl)-3-aza-1(1,3),2(1,2)-dibenzenacyclononaphane-9-yl)pyridine 1-oxide]
